# Source: patent US8163795B2, “Chroman derivatives, medicaments and use in therapy” (Marshall Edwards, Inc., priority 2004, dated 2012)
# Read-outs that look alike come from different tables or passages of the source.
# Experiments:
# [1] = test system: Mel-RM melanoma cell line; experiment: HMC combination with gemcitabine (synergy); assay type: cell-based; conditions: for IC50: Table 9, single agent
# Description: IC50 values were determined for each cell line. Cells were seeded in 96-well plates at an appropriate cell density as determined from growth kinetics analysis and cultured for 5 days in the absence and presence of the test compounds. Cell proliferation was assessed after the addition of 20 μl of 3-4,5 dimethylthiazol-2,5-diphenyl tetrazolium bromide (MTT, 2.5 mg/ml in PBS, Sigma) for 3-4 hrs at 37° C. according to manufacturer's instructions. IC50 values were calculated from semi-log plots of % of control proliferation on the y-axis against log dose on the x-axis.
# 3-D model analysis of the cytotoxic interaction between drug A and drug B enables the representation of predicted inhibitory effect of two drugs in combination in 3 dimensions to reveal actual regions of synergy or antagonism. The 3D synergy plots are based on a theory of “Theretical Additivity” (TA) as outlined by Kanzawa et al (Int. J. Cancer 71, 311-319 (1997)). Theoretical Additivity was calculated from the cytotoxicities of drug A and drug B as monotherapies using the following formula which assumes the drugs are mutually exclusive inhibitors: […]
# The TA is calculated for each combination of drug concentrations and subtracted from the observed experimental effect for each combination to give a measurement of synergisitic action.
# HMC synergy with gemcitabine was assessed either in combination over 5 days exposure or in sequence (HMC→gemcitabine) against the Mel-RM melanoma cell line. It was difficult to assess for synergisitic toxicity using a change in IC50 as a measure of synergy due to HMC toxicity as monotherapy (Table 9). […] Evidence of synergy using the HMC-gemcitabine combination was further assessed using the HMC→gemcitabine sequence (24 hr exposure to each compound in sequence) against the melanoma cell line Mel-RM. Using change in IC50 to assess for synergy it was noted that HMC at concentrations of 2 and 1 μM markedly chemosensitised the Mel-RM cells to gemcitabine by >1000 fold. HMC-induced chemosensitisation of Mel-RM cells to gemcitabine was confirmed using 3D analysis of the data.
# [2] = test system: CP70 ovarian cancer cell line; experiment: Proliferation assay (MTT); assay type: cell-based; conditions: Ovarian CP70, read-out: IC50
# [3] = HMC pharmacokinetics i.v. and i.p., mice; assay type: in vivo, female BALB/c mice; conditions: for concentration at 0.25 hr / concentration at 0.5 h / concentration at 4 hr / concentration at 24 hr / concentration at 1 hr: female, BALB/c, mouse, serum, 50 mg/kg; for concentration at 0.25 hr: 50 mg/kg in 20% HPBCD; for concentration at 0.5 h: 0.50 hr
# Description: HMC was prepared as a solution in 20% hydroxypropyl-beta-cyclodextrin (m:v, water). […] Three animals were allocated to each timepoint (15 min, 30 min, 1 hr, 4 hr and 24 hr). At each respective timepoint, animals were euthanased by cervical dislocation and blood collected. Urine was also collected and analysed for HMC. Free HMC was analysed by mass spectroscopy.
# [4] = test system: TRAIL-sensitive and -resistant melanoma cells; experiment: Apoptosis incidence, statements over several melanoma cell lines; assay type: cell-based; conditions: for incidence of apoptosis: 4 μM
# [5] = test system: HPAC pancreatic cancer tumours; experiment: Pilot in vivo efficacy study, HPAC tumour bearing mice; design: species or system Athymic nu/nu BALB/c mice
# From the text: Subconfluent (80%) flasks of HPAC cells were trypsinised, washed in Hanks balanced salt solution (Sigma), resuspended in dubellco's minimal essential medium (Sigma) and an equal volume of Matrigel™ (Becton Dickson) at a density of 3.7×10^7 cells per ml. Athymic nu/nu BALB/c mice were s.c. inoculated with 3.7×10^6 HPAC cells bi-laterally midway along the dorsal surface. For the HMC (n=3 per dosage regimen) and control groups (n=2), treatment commenced five days post inoculation to allow tumour formation. HMC was formulated 20% HPBCD and delivered i.p. daily for 15 days. The control group received equivalent (weight:weight) i.p. doses of 20% HPBCD. Tumour measurements commenced on day 5 post inoculation (10×10 mm^2) and were measured in 2 dimensions, length (a) and width (b), using calipers. Tumor weight (W) was calculated by the formula W=ab2/2, where a, is the longer of the 2 measurements (Odwyer et al., 1994). Tumour proliferation curves were analyzed with respect to maximal tumour inhibition (treated/control, TIC). On sacrifice, liver, kidney, femur, stomach and colon tissue were fixed in buffered formalin, embedded in paraffin, sections cut and stained with H&E. Stained sections were then submitted to Rothwell consulting for histopathology analysis. Serum biochemistry was conducted on bloods taken from control, vehicle control and HMC treatment groups. Serum analysis was conducted by Veterinary Clinical pathology (U. Syd).
# Histopathological examination of haematoxylin and eosin-stained sections cut from formalin-fixed tissues from two series of experimental mice was made. The liver, kidney, stomach and colon were examined for evidence of toxic damage, the spleen and bone marrow for evidence of myelosuppression and the tumour for degree of necrosis. A score of 0-5 was allocated to each tumour specimen for the degree of necrosis present, a 0 score representing, no necrosis and a score of 5, total necrosis. The sections were scored ‘blind’ on two separate occasions and the final score given in the results is the mean of these two scores.
smiles,measurement,setting,value
"COc1ccc(C2c3ccc(O)cc3OCC2c2ccc(O)cc2)cc1 (stereo not drawn) [Compound 1, 3-(4-hydroxyphenyl)-4-(4-methoxyphenyl)chroman-7-ol]",IC50,"[1]; 120 h, 5 days exposure, read-out: IC50, Combined (monotherapy)",0.51 µM
same,Change Factor (HMC first),"[1]; Gemcitabine block, HMC 1 uM 24 hr then gemcitabine 24 hr",>1000
same,Change Factor (HMC first),"[1]; Gemcitabine block, HMC 2 uM 24 hr then gemcitabine 24 hr",>100
same,chemosensitisation of Mel-RM cells to gemcitabine (change in IC50),"[1]; HMC 2 and 1 μM, HMC→gemcitabine sequence",> 1000 fold
same,IC50,"[1]; 24 hr exposure, read-out: IC50, 24 hr (monotherapy)",27.8 µM
same,Change Factor (HMC first),"[1]; upper block of Table 9, HMC 1 uM first, sequence",>1000
same,Change Factor (HMC first),"[1]; upper block of Table 9, HMC 2 uM first, sequence",>1000
same,IC50,[2]; Table 2.1,1.21 ± 0.29 µM
same,IC50,[2]; Table 2.2 (further studies),2.1 µM
same,free HMC in urine,[3]; 0.5 hr,3.3 mM
same,free HMC in urine,[3]; 1 hr,3.9 mM
same,serum concentration i.p. vs i.v.,[3]; 1 hr post administration,~4.5 fold
same,free HMC in urine,[3]; 4 hr,0.093 mM
same,concentration at 0.25 hr,[3]; ip,131 µM
same,concentration at 0.5 h,[3]; ip,31.8 µM
same,concentration at 4 hr,"[3]; ip, 4 hr",0.15 µM
same,concentration at 24 hr,[3]; ip,0.17 µM
same,concentration at 1 hr,"[3]; ip, i.p., 1 hr post administration, read-out: serum concentration",18.7 µM
same,concentration at 1 hr,"[3]; ip, ip, 1 hr, read-out: Serum HMC",18.7 µM
same,concentration at 0.25 hr,[3]; iv,1070 µM
same,concentration at 0.5 h,[3]; iv,199 µM
same,concentration at 4 hr,"[3]; iv, 4 hr",0.07 µM
same,concentration at 24 hr,[3]; iv,0.05 µM
same,concentration at 1 hr,"[3]; iv, i.v., 1 hr post administration, read-out: serum concentration",3.98 µM
same,concentration at 1 hr,"[3]; iv, iv, 1 hr, read-out: Serum HMC",3.98 µM
same,HMC in plasma,"[3]; i.p. administration, up to 1 hour post administration",131 µM
same,elimination kinetics,"[3]; i.p., hours 1-4 post administration",4.6 µM/h
same,elimination kinetics,"[3]; i.p., up to 1 hour post administration",112 µM/h
same,HMC in plasma,"[3]; i.v. administration, up to 1 hour post administration",1069 µM
same,level of HMC in blood,"[3]; i.v. in HPBCD, 15 min post administration",1000 µM
same,rate of excretion from blood,"[3]; i.v., first hr post administration",~1000 µM/h
same,rate of excretion from blood,"[3]; i.v., hours 1-4 post administration, assuming linear excretion",0.97 µM/h
same,serum concentration of free HMC i.p. vs orally delivered HMC,[3]; mice,~18 fold
same,apoptosis,"[4]; 2 μM, 24 and 48 hrs of exposure, all TRAIL-sensitive and -resistant melanoma cells",7-10%
same,incidence of apoptosis,"[4]; 24 hr exposure, the other cell lines (not MEL-RM, IGR3)",~9%
same,incidence of apoptosis,"[4]; 48 hr, all cell lines examined",21-42%
same,"final tumour burden (mean terminal tumour mass), % T/C","[5]; 100 mg/kg i.p. daily, 15 days",62%
same,proliferation of HPAC tumours over the treatment period vs vehicle control,"[5]; 100 mg/kg i.p. daily, 15 days, in 20% HPBCD",significantly retarded the proliferation of HPAC tumours
same,Necrosis Score 0-5 (tumour),"[5]; individual treated mice, 0 no necrosis, 5 total necrosis, mean of two blind scores",2
